# Counter-ions that a name gives are not always drawn.
# System: peripheral blood mononuclear cells (PBMCs) from healthy donors
# Experiment: IFN production by R848-activated PBMCs, quantified with twINNE luciferase reporter cell line
# Assay type: cell-based, human
# Settings: Homo sapiens, PBMC; read-out: IC50 of anti-inflammatory activity (IFN production by activated PBMCs)
# Description: The blood from healthy donors was obtained from “Etablissement Français du Sang” (convention #19/EFS/029), Paris, France.
# In vitro experiments were performed using human peripheral blood mononuclear cells (PBMCs) isolated by density centrifugation from peripheral blood leukocyte separation medium, lymphoprep (Stemcell Technologies).
# PBMCs were cultured in RPMI 1640 (Sigma-Aldrich, MO, USA) containing 10% heat-inactivated fetal bovine serum (Sigma-Aldrich, MO, USA) at 37° C./5% CO2.
# The PBMCs used herein were prepared as described in part A “immune cells preparation”, above. PBMCs were seeded at 4.10^6/mL. Cells were pre-treated with different concentration of examples according to the invention. Cells were then stimulated with the TLR7/8 agonist resiquimod—R848 (Sigma-Aldrich, MO, USA) at 5 μg/mL.
# To quantify the secretion of functional IFN, a biological assay based on a stable cell line where luciferase reporter gene is controlled by five Interferon-Stimulated Response Elements (twINNE cell line) was used. First, supernatants of R848-stimulated PBMCs (see part B above) were harvested after 24 h of stimulation and frozen at −20° C. for storage. Then, supernatants were dispensed in culture wells of a 96-well plate containing 35.103 twINNE cells per well in Dulbecco's Modified Eagle's Medium supplemented with 10% Foetal Bovine Serum, 100 U/mL Penicillin and 100 μg/mL Streptomycin (1% Pen-Strep) and 1 mM glutamine (Sigma-Aldrich, MO, USA) at 37° C./5% CO2. After 24 h of culture, luciferase activity was determined by adding 60 μL of Bright-Glo reagents (Promega, Wisconsin, USA) to culture wells and measuring bioluminescence with EnSpire Multimode Plate Reader (PerkinElmer, Massachusetts, USA). When stated, for IC50 calculation, dose-response curves fitted using the nonlin fit (variable slope) analysis in GraphPad Prism software (GraphPad Software, Califronia, USA).
# IFN production was quantified (as specified in Materials and Methods, part C “quantification of interferon secretion”) using twINNE reporter cell line.
row,SMILES,IC50
1,"O=C(O)C1CCN(CCSC2=NCc3ccccc3N2)C1 (centres unmarked) [Example 144, 1-(2-((1,4-dihydroquinazolin-2-yl)thio)ethyl)pyrrolidine-3-carboxylic acid dihydrochloride]",> 32 µM
2,"c1ccc2c(c1)CCN=C(SCCN1CCCc3ccccc31)N2 [Example 191, 2-((2-(3,4-dihydroquinolin-1(2H)-yl)ethyl)thio)-4,5-dihydro-1H-benzo[d][1,3]diazepine hydrochloride]",10 to 32 µM
3,"Clc1ccc2c(c1)CN1C(CSC3=NCCN3Cc3ccccc3)=CSC1=N2 [Example 47, 3-(((1-benzyl-4,5-dihydro-1H-imidazol-2-yl)thio)methyl)-7-chloro-5H-thiazolo[2,3-b]quinazoline dihydrochloride]",≤ 10 µM
4,"COc1ccc(CC2(C)CN=C(SCCCCN3CCCC3)N2)cc1 (centres unmarked) [Example 169, 5-(4-methoxybenzyl)-5-methyl-2-((4-(pyrrolidin-1-yl)butyl)thio)-4,5-dihydro-1H-imidazole dihydrochloride]",> 32 µM
5,"CN1CCCC1CSC1=NCc2ccccc2N1 (centres unmarked) [Example 108, 2-(((1-methylpyrrolidin-2-yl)methyl)thio)-1,4-dihydroquinazoline dihydrochloride]",10 to 32 µM
6,"Fc1ccc2c(c1)CN=C(SCCCCN1CCCC1)N2 [Example 152, 6-fluoro-2-((4-(pyrrolidin-1-yl)butyl)thio)-1,4-dihydroquinazoline dihydrochloride]",10 to 32 µM
7,"C1=C(CSC2=NCc3ccccc3N2)N2CC(Cc3cccs3)N=C2S1 (centres unmarked) [Example 63, 3-(((3,4-dihydroquinazolin-2-yl)thio)methyl)-6-(thiophen-2-ylmethyl)-5,6-dihydroimidazo[2,1-b]thiazole dihydrochloride]",≤ 10 µM
8,"Fc1cccc2c1CN=C(SCC1=CSC3=NC(Cc4ccccc4)CN13)N2 (centres unmarked) [Example 117, 6-benzyl-3-(((5-fluoro-1,4-dihydroquinazolin-2-yl)thio)methyl)-5,6-dihydroimidazo[2,1-b]thiazole dihydrochloride]",≤ 10 µM
9,"C1CCNC(SCCCCN2CCCC2)=NC1 [Example 178, 2-((4-(pyrrolidin-1-yl)butyl)thio)-4,5,6,7-tetrahydro-1H-1,3-diazepine dihydrochloride]",> 32 µM
10,"C1=C(CSC2=NCc3ccccc3N2)N2C(=Nc3ccccc3C2c2ccccc2)S1 (centres unmarked) [Example 43, 3-(((3,4-dihydroquinazolin-2-yl)thio)methyl)-5-phenyl-5H-thiazolo[2,3-b]quinazoline dihydrochloride]",≤ 10 µM
11,"CC1(C)CN2C(CSC3=NCc4ccc(Cl)cc4N3)=CSC2=N1 [Example 6, 3-(((7-chloro-1,4-dihydroquinazolin-2-yl)thio)methyl)-6,6-dimethyl-5,6-dihydroimidazo[2,1-b]thiazole dihydrochloride]",≤ 10 µM
12,"CC1(c2ccccc2)CN=C(SCCCCN2CCCC2)N1 (centres unmarked) [Example 170, 5-methyl-5-phenyl-2-((4-(pyrrolidin-1-yl)butyl)thio)-4,5-dihydro-1H-imidazole dihydrochloride]",> 32 µM
13,"CN1CCCC1CCSC1=NCc2cc(Cl)ccc2N1 (centres unmarked) [Example 158, 6-chloro-2-((2-(1-methylpyrrolidin-2-yl)ethyl)thio)-1,4-dihydroquinazoline dihydrochloride]",≤ 10 µM
14,"C1=C(CSC2=NCc3ccccc3N2)N2C(=N[C@H](c3ccccc3)[C@H]2c2ccccc2)S1 (relative stereo) [Example 16, trans-3-(((3,4-dihydroquinazolin-2-yl)thio)methyl)-5,6-diphenyl-5,6-dihydroimidazo[2,1-b]thiazole dihydrochloride]",≤ 10 µM
15,"c1ccc(COC2CCN(CCSC3=NCc4ccccc4N3)C2)cc1 (centres unmarked) [Example 143, 2-((2-(3-(benzyloxy)pyrrolidin-1-yl)ethyl)thio)-1,4-dihydroquinazoline dihydrochloride]",≤ 10 µM
16,"C[C@H](CSC1=NCc2cc(Cl)ccc2N1)N1CCCC1 [Example 167, (R)-6-chloro-2-((2-(pyrrolidin-1-yl)propyl)thio)-1,4-dihydroquinazoline dihydrochloride]",≤ 10 µM
17,"C1CN=C(SCCCCN2CCCC2)NC1 [Example 173, 2-((4-(pyrrolidin-1-yl)butyl)thio)-1,4,5,6-tetrahydropyrimidine dihydrochloride]",> 32 µM
18,"CC(CCCSC1=NCc2ccccc2N1)N1CCCC1 (centres unmarked) [Example 165, 2-((4-(pyrrolidin-1-yl)pentyl)thio)-1,4-dihydroquinazoline dihydrochloride]",10 to 32 µM

row,SMILES,IC50
1,"COc1ccc(CC2(C)CN3C(CSC4=NCc5ccccc5N4)=CSC3=N2)cc1 (centres unmarked) [Example 46, 3-(((3,4-dihydroquinazolin-2-yl)thio)methyl)-6-(4-methoxybenzyl)-6-methyl-5,6-dihydroimidazo[2,1-b]thiazole dihydrochloride]",≤ 10 µM
2,"CC(CSC1=NCc2ccccc2N1)N1CCCC1 (centres unmarked) [Example 129, 2-((2-(pyrrolidin-1-yl)propyl)thio)-1,4-dihydroquinazoline dihydrochloride]",≤ 10 µM
3,"Clc1ccccc1CC1CN2C(CSC3=NCc4ccccc4N3)=CSC2=N1 (centres unmarked) [Example 123, 6-(2-chlorobenzyl)-3-(((1,4-dihydroquinazolin-2-yl)thio)methyl)-5,6-dihydroimidazo[2,1-b]thiazole dihydrochloride]",≤ 10 µM
4,"Brc1ccc2c(c1)CN1C(CSC3=NCc4ccccc4N3)=CSC1=N2 [Example 69, 7-bromo-3-(((1,4-dihydroquinazolin-2-yl)thio)methyl)-5H-thiazolo[2,3-b]quinazoline dihydrochloride]",≤ 10 µM
5,"c1ccc2c(c1)CCN=C(SCCCN1CCCC1)N2 [Example 190, 2-((3-(pyrrolidin-1-yl)propyl)thio)-4,5-dihydro-3H-benzo[d][1,3]diazepine dihydrochloride]",10 to 32 µM
6,"C1=C(CSC2=NCCc3ccccc3N2)N2Cc3ccccc3CN=C2S1 [Example 25, 3-(((4,5-dihydro-1H-benzo[d][1,3]diazepin-2-yl)thio)methyl)-5,10-dihydrobenzo[e]thiazolo[3,2-a][1,3]diazepine dihydrochloride]",≤ 10 µM
7,"Clc1ccc2c(c1)N=C1SC=C(CSC3=NCc4ccccc4N3)N1C2 [Example 42, 8-chloro-3-(((1,4-dihydroquinazolin-2-yl)thio)methyl)-5H-thiazolo[2,3-b]quinazoline dihydrochloride]",≤ 10 µM
8,"COC1CCN(CCSC2=NCc3ccccc3N2)C1 (centres unmarked) [Example 127, 2-((2-(3-methoxypyrrolidin-1-yl)ethyl)thio)-1,4-dihydroquinazoline dihydrochloride]",≤ 10 µM
9,"c1ccc(CC2CN=C(SCCCCN3CCCC3)N2)cc1 (centres unmarked) [Example 181, 5-benzyl-2-((4-(pyrrolidin-1-yl)butyl)thio)-4,5-dihydro-1H-imidazole dihydrochloride]",> 32 µM
10,"Clc1ccc2c(c1)CN=C(SCCN1CCCC1)N2 [Example 59, 6-chloro-2-((2-(pyrrolidin-1-yl)ethyl)thio)-1,4-dihydroquinazoline dihydrochloride]",≤ 10 µM
11,"Cc1ccc(CC2CN3C(CSC4=NCc5ccccc5N4)=CSC3=N2)cc1 (centres unmarked) [Example 122, 3-(((1,4-dihydroquinazolin-2-yl)thio)methyl)-6-(4-methylbenzyl)-5,6-dihydroimidazo[2,1-b]thiazole dihydrochloride]",≤ 10 µM
12,"C1=C(CSC2=NCc3ccccc3N2)N2CCc3ccccc3N=C2S1 [Example 35, 3-(((3,4-dihydroquinazolin-2-yl)thio)methyl)-5,6-dihydrobenzo[d]thiazolo[3,2-a][1,3]diazepine dihydrochloride]",≤ 10 µM
13,"Clc1ccc(C2CN=C(SCC3=CSC4=NCc5ccccc5CN34)N2)cc1 (centres unmarked) [Example 22, 3-(((4-(4-chlorophenyl)-4,5-dihydro-1H-imidazol-2-yl)thio)methyl)-5,10-dihydrobenzo[e]thiazolo[3,2-a][1,3]diazepine dihydrochloride]",≤ 10 µM
14,"c1ccc2c(c1)CN=C(SCCCN1CCCC1)NC2 [Example 194, 3-((3-(pyrrolidin-1-yl)propyl)thio)-2,5-dihydro-1H-benzo[e][1,3]diazepine dihydrochloride]",> 32 µM
15,"CN1CCC(SC2=NC(C)(C)c3ccccc3N2)C1 (centres unmarked) [Example 98, 4,4-dimethyl-2-((1-methylpyrrolidin-3-yl)thio)-1,4-dihydroquinazoline dihydrochloride]",> 32 µM
16,"O=C1CCCN1CCSC1=NCc2ccccc2N1 [Example 135, 1-(2-((1,4-dihydroquinazolin-2-yl)thio)ethyl)pyrrolidin-2-one hydrochloride]",> 32 µM
17,"Cc1cccc(CC2CN3C(CSC4=NCc5ccccc5N4)=CSC3=N2)c1 (centres unmarked) [Example 112, 3-(((1,4-dihydroquinazolin-2-yl)thio)methyl)-6-(3-methylbenzyl)-5,6-dihydroimidazo[2,1-b]thiazole dihydrochloride]",≤ 10 µM

# Reference: patent publication US20240018125A1, “CYCLIC ISOTHIOUREA DERIVATIVES AS CXCR4 MODULATORS” (ERMIUM THERAPEUTICS, priority 2020, published 2024)
